Results: the NIST ThermoML archive (doi:10.1016/j.fluid.2017.07.020)
Values joined by “and” are separate entries in the source; they are usually repeats but may differ in a detail not shown here. Equal values may be shown once.

How the values were obtained:
[1] = Molar enthalpy of transition or fusion; conditions: DSC
[2] = solid-solid phase transition pressure; conditions: Crystal 2, DTA

BrC12CC3CC(CC(C3)C1)C2 [1-bromotricyclo[3.3.1.1(3,7)]decane]
Conditions	Molar enthalpy of transition or fusion [kcal/mol]	phase transition pressure
286.4 K, Crystal 3, DTA	–	36100 kPa
292.5 K, Crystal 3, DTA	–	71200 kPa
299.2 K, Crystal 3, DTA	–	93300 kPa
310.5 K, Crystal 3, DTA	–	122500 kPa
310.7 K, Crystal 2, DTA	–	31100 kPa
311.5 K, Crystal 3, DTA	–	117100 kPa
316.4 K, Crystal 3, DTA	–	151900 kPa
316.8 K, Crystal 3, DTA	–	133700 kPa
317.9 K, Crystal 2, DTA	–	48600 kPa
318.5 K, Crystal 2, DTA	–	49700 kPa
321.1 K, Crystal 2, DTA	–	48800 kPa
322.6 K, Crystal 2, DTA	–	50400 kPa
323 K, Crystal 2, DTA	–	40400 kPa
323.1 K, Crystal 2, DTA	–	50000 kPa
323.9 K, Crystal 2, DTA	–	49000 kPa
324.1 K, Crystal 2, DTA	–	51800 kPa
324.7 K, Crystal 2, DTA	–	45700 kPa
325.2 K, Crystal 2, DTA	–	50900 kPa
325.4 K, Crystal 3, DTA	–	151800 kPa
327.5 K, Crystal 3, DTA	–	184900 kPa
329.6 K, Crystal 2, DTA	–	72800 kPa
329.9 K, Crystal 2, DTA	–	72400 kPa
330.6 K, Crystal 3, DTA	–	175700 kPa
332 K, Crystal 2, DTA	–	74500 kPa
333.7 K, Crystal 3, DTA	–	227100 kPa
335.1 K, Crystal 2, DTA	–	73100 kPa
337 K, Crystal 3, DTA	–	199700 kPa
337.3 K, Crystal 2, DTA	–	100700 kPa
337.4 K, Crystal 2, DTA	–	95400 kPa
337.8 K, Crystal 2, DTA	–	101000 kPa
342.8 K, Crystal 3, DTA	–	256100 kPa
343.5 K, Crystal 2, DTA	–	118200 kPa
347.6 K, Crystal 2, DTA	–	128300 kPa
348.3 K, Crystal 2, DTA	–	126000 kPa
351.4 K, Crystal 2, DTA	–	126900 kPa
355.9 K, Crystal 2, DTA	–	138100 kPa
358.3 K, Crystal 2, DTA	–	153800 kPa
359 K, Crystal 2, DTA	–	154300 kPa
362.3 K, Crystal 2, DTA	–	155500 kPa
363.9 K, Crystal 2, DTA	–	177800 kPa
369 K, Crystal 2, DTA	–	182300 kPa
369.7 K, Crystal 2, DTA	–	189300 kPa
372.5 K, Crystal 2, DTA	–	178800 kPa
374.4 K, Crystal 2, DTA	–	205600 kPa
377.4 K, Crystal 2, DTA	–	205400 kPa
381.6 K, Crystal 2, DTA	–	204700 kPa and 234100 kPa
382.7 K, Crystal 2, DTA	–	224800 kPa
383.4 K, Crystal 2, DTA	–	232100 kPa
389.6 K, Crystal 2, DTA	–	255000 kPa
390.9 K, Crystal 2, DTA	–	255000 kPa
392.5 K, Crystal 2, DTA	–	261500 kPa
404.9 K, Crystal 1, DTA	–	25800 kPa
406 K, Crystal 1, DTA	–	32500 kPa
411.8 K, Crystal 1, DTA	–	61300 kPa
414.6 K, Crystal 1, DTA	–	56200 kPa
415.8 K, Crystal 1, DTA	–	78400 kPa
436.7 K, Crystal 1, DTA	–	160000 kPa
[1], Crystal 1	0.777	–
[1], Crystal 2	1.6	–
[1], Crystal 3	0.301	–

Conditions	Triple point temperature [K]
Crystal 1, DTA	392
Crystal 2, DTA	310.8
Crystal 3, DTA	282.6

ClC12CC3CC(CC(C3)C1)C2 [1-chlorotricyclo[3.3.1.1(3,7)]decane]
Conditions	Triple point temperature [K]
Crystal 1, DSC	438.6
Crystal 2, DTA	249.5

Conditions	Molar enthalpy of transition or fusion [kcal/mol]	solid-solid phase transition pressure [kPa]
[1], Crystal 1	1.01	–
[1], Crystal 2	1.42	–
[2], 250.4 K	–	400
[2], 254.3 K	–	15100
[2], 260.5 K	–	47600
[2], 265 K	–	52500
[2], 270.3 K	–	73100
[2], 274.4 K	–	98800
[2], 278.5 K	–	104200
[2], 284.7 K	–	123100
[2], 292.2 K	–	153000
[2], 292.3 K	–	150200
[2], 298.4 K	–	173600
[2], 300.5 K	–	199600
[2], 306.2 K	–	204000
[2], 307 K	–	216500
[2], 311.5 K	–	221600
[2], 313.1 K	–	237900
[2], 313.7 K	–	242200
[2], 315.2 K	–	237700
[2], 317.3 K	–	241000
[2], 319.5 K	–	261500
[2], 320.7 K	–	266800
